Experimental data as given in patent publication US11406622B2, “Glaucocalyxin a derivative, pharmaceutically acceptable salt thereof, or pharmaceutical composition thereof and uses thereof in preparation of drugs for treating psoriasis” (SUZHOU PHARMAVAN CO., LTD., priority 2017, dated 2022).
Where two headings read alike, the source gives them in different places.

Legend:
BALB/c mice = test: Acute toxicity in BALB/c mice, single tail-vein injection (Example 9); format: in vivo, mouse; details: single intravenous injection
Text: In this example, Compound 23 and Compound 24 were detected for their acute toxicities, and the detection method was as follows.
Experimental procedure: 40 BALB/c mice, half male and half female, were randomly divided into groups after weight measurement. The weight of an individual should be within the range of the average body weight±20%. Animals should be allowed to acclimatize to the environment for at least 5 days before the test, and healthy (if female, it must be un-pregnant) mice were selected as test animals. The main inspections during the acclimatization period included: whether it met the quality indicators required at the time of ordering; general state check; and whether the weight reached the weight range required by the test. Unqualified abnormal animals were not included in this test. A single tail-vein injection was administrated to the mice at a low, medium, or high dose, which was 5 mg/kg, 10 mg/kg, or 40 mg/kg respectively according to a blank preparation pre-test. An equal volume of vehicle was intravenously injected to establish a control group.
Mice were observed once respectively at 0 to 2 hours and 4 to 6 hours after each administration. If toxic symptoms occurred, the number of observations could be increased. (2) Gross anatomy observation: All the surviving mice in each group were dissected and observed on the 8th day of the experiment. The abnormal organs and tissues found in the observation of administration sites and in the gross anatomy observation that might be related to the test samples were photographed and recorded. (3) Disposal of dying animals: The state of the mouse and the observation time were recorded, and the body weight was measured. (4) Disposal of dead animals: The time of death or the time when the death was found was recorded, the body weight was measured, and then the dissection was quickly performed for gross observation to speculate the cause of death.

HaCaT keratinocytes = test: Time- and dose-dependent inhibition of proliferation of human keratinocytes, CCK-8 (Example 6); format: cell-based
Procedure: In this example, the glaucocalyxin A derivatives of the present application and pharmaceutically acceptable salts thereof were examined for the relationship between the inhibitory rate thereof on the proliferation of human keratinocytes and its concentration. Compound 23 as shown in Table 1 was used as an exemplary compound to be examined by using the following procedure.
A cell suspension was prepared and inoculated into three 96-well plates at 8000 cells in a volume of 150 μl per well, which were then cultured overnight in an incubator at 37° C., 5% CO2. On the next day, 50 μl of test compound solution at different concentrations was added to each well. Triplicate wells were set up for each concentration. A vehicle control group (without compound), a cell control group (without compound and without vehicle), and a blank medium control group (without cells, a well for null adjustment) were also set up, and cultured for additional 24, 48, and 72 hours. CCK-8 staining working solution was added at 110 μL per well, and cultured for additional 1-4 h. At the end of the culture, the absorbances were measured at 450 nm (OD450 nm) on a Bio-Tek enzyme-linked immunosorbent assay. The results were expressed as the mean OD450 nm value of the triplicates±standard deviation (x±sd). Prism Graph was used for plotting and analysis. The cell inhibitory rate of each group was calculated according to the mean value of the treatment group with each compound at each concentration and the mean value of the vehicle control group, that is, the cell inhibitory rate (%)=[1−(the mean value of the treatment group−the blank control group)/(the mean value of the vehicle control group−the blank control group)]×100%. A fitting curve was obtained by plotting the cell inhibitory rate of each group against the logarithmic concentration (Log C) of the test compound, and then the IC50 value was determined.

[1] = system: xylene-induced auricular swelling in mice; test: Xylene-induced auricular swelling in mice (Example 7); format: in vivo, mouse; details: 7 consecutive days, xylene on 8th day
Procedure: In this example, the glaucocalyxin A derivatives and pharmaceutically acceptable salts thereof were detected for the inhibitory effect thereof on xylene-induced auricular swelling in mice. Compound 23 was used as an exemplary compound, and the detection method was as follows.
20 mice were randomly divided into 4 groups with 5 mice in each group, which were blank control group, 30 mg/kg dexamethasone treatment group, Compound 23 (10 mg/kg) treatment group, and Compound 23 (50 mg/kg) treatment group, respectively. 0.25-0.3 mL depending on the body weight was intragastrically administrated for 7 consecutive days, and an equal volume of 5% glucose injection was administrated to the blank group. On the 8th day, xylene was used to produce a model of auricular swelling in the right auricle of mice. 15 μl of xylene, an inflammatory inducer, was applied to both sides of the right auricle of each mouse, and the left auricle was left un-treated as a normal auricle control. After 1 hour, the mice were sacrificed by cervical dislocation. Both auricles were cut off along the auricle baseline, and then punched at the same position by using a puncher with a diameter of 8 mm to give auricle pieces, which were then weighed on an electronic analytical balance. The auricular swelling rate and the auricular swelling inhibitory rate were calculated according to the following formula. […]

[2] = system: human keratinocytes (HaCaT); test: Effect on proliferation of human keratinocytes, CCK-8, 48 h (Example 5); format: cell-based; details: 48 hours of treatment
Procedure: In this example, the glaucocalyxin A derivatives of the present application, or pharmaceutically acceptable salts thereof, were examined for the effect on the proliferation of human keratinocytes. In this example, the glaucocalyxin A derivatives as shown in Table 1 were examined by using the following procedure. A cell suspension was prepared and inoculated into three 96-well plates at 8000 cells in a volume of 150 μl per well, which were then cultured overnight in an incubator at 37° C., 5% CO2. On the next day, 50 μl of test compound solution at different concentrations was added to each well. Triplicate wells were set up for each concentration. A vehicle control group (without compound), a cell control group (without compound and vehicle), and a blank medium control group (without cells, a well for null adjustment) were also set up, and cultured for an additional 48 hours. CCK-8 staining working solution was added at 110 μL per well, and cultured for additional 1-4 h. At the end of the culture, the absorbances were measured at 450 nm (OD450 nm) on a Bio-Tek enzyme-linked immunosorbent assay. The results were expressed as the mean OD450 nm value of triplicates±standard deviation (x±sd). The Origin 7.0 was used for plotting and analysis. A fitting curve was obtained by plotting the OD value of each group against the logarithmic concentration of the test compound, and then the IC50 value was determined.

With Br.C=C1C(=O)C23C(O)CC4C(C)(C)c5nc(N(C)C)sc5CC4(C)C2CCC1C3O (stereo not shown) [Compound 23] the comparative safety (BALB/c mice) was “safer than Compound 24”, the toxic side effects (BALB/c mice; 5 mg/kg) was “No obvious toxic side effects” and the “weight loss and decreased diet” value (BALB/c mice; 5 mg/kg) was “no significant weight loss and decreased diet”. For the same compound, the toxic side effects (BALB/c mice; 10 mg/kg) was “No obvious toxic side effects”, the “weight loss and decreased diet” value (BALB/c mice; 10 mg/kg) was “no significant weight loss and decreased diet” and the toxic side effects (BALB/c mice; 40 mg/kg) was “No obvious toxic side effects”. For the same compound, the “weight loss and decreased diet” value (BALB/c mice; 40 mg/kg) was “no significant weight loss and decreased diet”, the IC50 (HaCaT keratinocytes; 24 h, read-out: IC50 at 24 h) was 1940 nM and the IC50 (HaCaT keratinocytes; 48 h, read-out: IC50 at 48 h) was 933 nM. The IC50 (HaCaT keratinocytes; 72 h, read-out: IC50 at 72 h) was 787 nM, the “inhibition of auricular swelling” value ([1]; 10 mg/kg intragastric) was “effective” and the “inhibition of auricular swelling” value ([1]; 50 mg/kg intragastric) was “effective”. It also gave an IC50 [2] of 0.93 µM.
